Source: patent EP3797781A1, “USE OF EC-7072 AND SYNERGIC COMPOSITIONS THEREOF IN TREATMENT OF CHRONIC LYMPHOCYTIC LEUKEMIA” (priority 2019, dated 2021)

Experiments:
[1] = test system: primary fibroblasts from healthy donors; assay: Cell death of primary fibroblasts by PI staining; assay type: cell-based, human; conditions: 200 nM, 24 hours; n = 4
Description: Effectiveness of EC-7072 against different B-cell malignancies was assessed by; • (i) incubating primary fibroblasts from healthy donors (n = 4) and HK-2 cells from healthy human adult kidney (n = 3) following treatment with MTA (200 nM) or EC-7072 (200 nM) for 24 hours. Cell death was evaluated by PI staining to obtain the percentages corresponding to the [PI^+] subset (Figure 5A) and the mean percentage of [PI^+] cells (Figure 5B); • (ii) treating MEC-1, GRANTA-519, Z-138, JVM-2, CA-46, Ramos, Raji and U266 cell lines (n = 3) following treatment with EC-7072 (500 nM) followed by incubation for 24 hours. Cell viability was assessed by DiOC6(3)/PI staining and normalized to control (DMSO) condition to obtain mean percentage of viable [DiOC6(3)^+] cells (Figure 5C).

healthy B cells = assay: Viability of healthy B cells from healthy donors by DiOC6(3)/PI staining; assay type: cell-based, human; conditions: 200 nM, 24 hours; PBMCs from healthy donors (n = 20); Figure 1F
Description: Cell viability and apoptosis were evaluated by double-staining with the mitochondrial inner transmembrane potential (ΔΨm)-sensitive dye DiOC6(3) (3,3'-dihexyloxacarbocyanine iodide; Sigma-Aldrich) and the exclusion dye propidium iodide (PI; Immunostep), allowing identification of apoptotic [DiOC6(3)^low PI^-] and dead [PI^+] cells as per Proc. Natl. Acad. Sci. U.S.A. (2014) 111(8):3020-3025 and Methods Mol. Biol. (2016) 1419:1-16. Briefly, PBMCs were resuspended in culture medium containing 20 nM DiOC6(3) and incubated for 30 minutes at 37 °C. Then, PI (1 µg/mL) was added and cells were further incubated for 10 minutes at room temperature (RT). Cells were analyzed by flow cytometry considering DiOC6(3)^+PI^- cells as viable. In some experiments, apoptosis was evaluated by staining with Annexin V/PI. […]
The in vitro cytotoxic activity of EC-7072 against primary CLL cells was assessed by: • (i) incubating PBMCs isolated from patients with CLL (n = 13) following treatment with increasing concentrations of EC-7072 (0 - 400 nM) for 24 hours. Numbers of leukemia cells were evaluated by flow cytometry and normalized to their respective control (DMSO) condition for each individual patient to obtain percentage of leukemia cells (Figure 1A); • (ii) incubating PBMCs from patients with CLL (n = 10) with or without EC-7072 (100-400 nM) for 24 hours. […]

CO[C@@H]([C@@H]1Cc2cc3cc(O[C@H]4C[C@@H](O[C@H]5C[C@@H](O)[C@H](O)[C@@H](C)O5)[C@H](O)[C@@H](C)O4)c(C)c(O)c3c(O)c2C(=O)[C@H]1O[C@H]1C[C@@H](O[C@H]2C[C@@H](O[C@H]3C[C@](C)(O)[C@H](O)[C@@H](C)O3)[C@@H](O)[C@@H](C)O2)[C@H](O)[C@@H](C)O1)[C@@H](O)C(C)=O [EC-7072, mithramycin SK]
viability of primary human fibroblasts (PI^+ cells) [1]: did not markedly affect the viability
viability of healthy B cells (healthy B cells): triggered death of normal B cells
